Literature values, collected in patent publication US20250367260A1, “TIRZEPATIDE COMPOSITIONS AND PREPARATION METHOD” (Galenicum Health S.L.U., priority 2024, published 2025).

O=S(=O)(O)CC(O)CN(CCO)CCO (stereo not drawn) [DIPSO, 3-(N,N-Bis[2-hydroxyethyl]amino)-2-hydroxypropanesulfonic acid]
pKa: ≈ 7.6

O=S(=O)(O)CCN1CCN(CCO)CC1 [HEPES, 4-(2-hydroxyethyl)-1-piperazineethanesulfonic acid]
pKa: ≈ 7.5

O=S(=O)(O)CCCN1CCN(CCO)CC1 [HEPPS, 4-(2-Hydroxyethyl)-1-piperazinepropanesulfonic acid]
pKa: ≈ 8.1

O=S(=O)(O)CC(O)CNC(CO)(CO)CO (stereo not drawn) [TAPSO, 3-[N-Tris(hydroxymethyl)methylamino]-2-hydroxypropanesulfonic acid]
pKa: ≈ 7.6

O=S(=O)(O)CCNC(CO)(CO)CO [TES, N-[Tris(hydroxymethyl)methyl]-2-aminoethanesulfonic acid]
pKa: ≈ 7.4

O=C(O)CNC(CO)(CO)CO [Tricine, N-tris(hydroxymethyl)methylglycine]
pKa: ≈ 8.2
